What was measured:
[1] = target: T1, Alpha-2A adrenergic receptor (Homo sapiens, UniProt P08913); assay type: functional, cell-based
T1 sequence (P08913 whole entry): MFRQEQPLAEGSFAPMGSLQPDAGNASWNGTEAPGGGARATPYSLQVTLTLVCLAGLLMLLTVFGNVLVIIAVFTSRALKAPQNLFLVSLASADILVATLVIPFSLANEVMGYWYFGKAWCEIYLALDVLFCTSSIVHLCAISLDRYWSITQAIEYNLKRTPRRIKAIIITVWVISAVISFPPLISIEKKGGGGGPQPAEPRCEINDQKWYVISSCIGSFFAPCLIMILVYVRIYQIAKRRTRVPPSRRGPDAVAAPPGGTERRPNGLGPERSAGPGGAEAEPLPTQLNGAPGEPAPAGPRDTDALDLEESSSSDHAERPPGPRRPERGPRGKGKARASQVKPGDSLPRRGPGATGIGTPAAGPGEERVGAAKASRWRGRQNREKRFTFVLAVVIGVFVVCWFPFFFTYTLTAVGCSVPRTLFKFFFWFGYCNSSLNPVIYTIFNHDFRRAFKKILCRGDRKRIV

D(3) dopamine receptor = D(3) dopamine receptor (Homo sapiens, UniProt P35462)
Chain of D(3) dopamine receptor (P35462 whole entry): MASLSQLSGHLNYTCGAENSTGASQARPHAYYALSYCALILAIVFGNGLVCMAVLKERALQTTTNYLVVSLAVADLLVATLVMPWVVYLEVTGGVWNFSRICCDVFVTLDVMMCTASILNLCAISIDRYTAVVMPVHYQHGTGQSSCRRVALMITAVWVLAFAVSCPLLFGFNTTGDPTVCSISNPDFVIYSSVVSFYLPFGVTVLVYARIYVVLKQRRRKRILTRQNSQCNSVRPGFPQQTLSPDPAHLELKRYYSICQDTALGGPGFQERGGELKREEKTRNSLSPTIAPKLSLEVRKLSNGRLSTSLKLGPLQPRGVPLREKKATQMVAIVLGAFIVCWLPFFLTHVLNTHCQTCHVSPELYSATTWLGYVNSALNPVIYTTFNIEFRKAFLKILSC

[2] = target: 5-hydroxytryptamine receptor 2B (Homo sapiens, UniProt P41595); assay type: functional, cell-based
Chain of 5-hydroxytryptamine receptor 2B (P41595 whole entry): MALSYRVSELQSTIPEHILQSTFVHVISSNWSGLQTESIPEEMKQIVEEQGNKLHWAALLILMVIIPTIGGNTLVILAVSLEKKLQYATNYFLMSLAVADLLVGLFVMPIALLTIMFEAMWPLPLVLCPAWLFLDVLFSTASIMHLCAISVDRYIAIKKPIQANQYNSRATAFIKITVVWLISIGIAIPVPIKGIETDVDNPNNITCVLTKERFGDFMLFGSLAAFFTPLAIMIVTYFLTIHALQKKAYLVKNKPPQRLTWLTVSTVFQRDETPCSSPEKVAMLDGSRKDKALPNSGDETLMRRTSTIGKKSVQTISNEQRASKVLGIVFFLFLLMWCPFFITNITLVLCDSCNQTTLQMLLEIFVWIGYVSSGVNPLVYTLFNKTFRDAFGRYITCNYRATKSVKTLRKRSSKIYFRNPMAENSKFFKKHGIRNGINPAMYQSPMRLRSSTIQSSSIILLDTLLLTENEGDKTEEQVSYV

Cannabinoid receptor 1 [3] = target: T2, Cannabinoid receptor 1 (Homo sapiens, UniProt P21554); assay type: functional, cell-based
T2 sequence (P21554 whole entry): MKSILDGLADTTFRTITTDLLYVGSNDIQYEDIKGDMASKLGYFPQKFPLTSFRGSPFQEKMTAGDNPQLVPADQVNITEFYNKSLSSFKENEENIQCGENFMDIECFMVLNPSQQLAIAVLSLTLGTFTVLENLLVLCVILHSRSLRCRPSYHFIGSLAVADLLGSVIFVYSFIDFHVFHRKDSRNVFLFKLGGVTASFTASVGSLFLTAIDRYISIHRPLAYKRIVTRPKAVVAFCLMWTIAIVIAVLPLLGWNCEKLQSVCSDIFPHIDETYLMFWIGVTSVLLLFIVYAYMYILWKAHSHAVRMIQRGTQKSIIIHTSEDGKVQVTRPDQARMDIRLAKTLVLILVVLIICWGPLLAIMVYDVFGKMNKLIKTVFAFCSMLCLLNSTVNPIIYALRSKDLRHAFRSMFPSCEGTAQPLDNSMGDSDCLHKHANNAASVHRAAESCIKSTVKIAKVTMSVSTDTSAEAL

[4] = target: Gamma-aminobutyric acid receptor subunit alpha-1 (Rattus norvegicus, UniProt P62813)
Chain of Gamma-aminobutyric acid receptor subunit alpha-1 (P62813 whole entry): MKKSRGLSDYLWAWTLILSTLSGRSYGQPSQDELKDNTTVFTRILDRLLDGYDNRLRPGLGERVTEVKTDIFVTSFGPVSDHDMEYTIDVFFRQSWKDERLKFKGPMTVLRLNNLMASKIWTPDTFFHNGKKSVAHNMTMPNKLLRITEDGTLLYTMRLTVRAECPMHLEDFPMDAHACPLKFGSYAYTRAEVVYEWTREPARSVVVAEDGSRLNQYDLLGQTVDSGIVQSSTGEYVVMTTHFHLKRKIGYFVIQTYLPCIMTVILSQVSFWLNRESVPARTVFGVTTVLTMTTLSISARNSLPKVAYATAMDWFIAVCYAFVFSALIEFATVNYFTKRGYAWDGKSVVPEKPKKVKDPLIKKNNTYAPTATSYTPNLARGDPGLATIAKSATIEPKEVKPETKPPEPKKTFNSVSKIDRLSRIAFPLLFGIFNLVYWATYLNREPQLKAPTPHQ

[5] = target: Beta-2 adrenergic receptor (Homo sapiens, UniProt P07550); assay type: functional, cell-based
[6] = target: T3, Alpha-1A adrenergic receptor (Homo sapiens, UniProt P35348)
T3 sequence (P35348 whole entry): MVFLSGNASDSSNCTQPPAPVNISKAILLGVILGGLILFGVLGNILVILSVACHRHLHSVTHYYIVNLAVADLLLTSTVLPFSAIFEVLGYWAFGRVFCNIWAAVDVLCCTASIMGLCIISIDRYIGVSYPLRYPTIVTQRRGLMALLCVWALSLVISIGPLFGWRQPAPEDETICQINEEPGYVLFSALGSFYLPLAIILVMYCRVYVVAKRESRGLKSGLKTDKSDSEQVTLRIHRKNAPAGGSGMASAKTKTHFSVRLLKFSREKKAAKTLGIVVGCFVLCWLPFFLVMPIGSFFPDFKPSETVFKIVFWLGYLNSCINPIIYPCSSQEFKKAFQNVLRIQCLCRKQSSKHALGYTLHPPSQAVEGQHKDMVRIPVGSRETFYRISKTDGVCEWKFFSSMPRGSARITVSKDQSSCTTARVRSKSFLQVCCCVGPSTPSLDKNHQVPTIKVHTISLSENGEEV

Mu-type opioid receptor = Mu-type opioid receptor (Homo sapiens, UniProt P35372)
Chain of Mu-type opioid receptor (P35372 whole entry): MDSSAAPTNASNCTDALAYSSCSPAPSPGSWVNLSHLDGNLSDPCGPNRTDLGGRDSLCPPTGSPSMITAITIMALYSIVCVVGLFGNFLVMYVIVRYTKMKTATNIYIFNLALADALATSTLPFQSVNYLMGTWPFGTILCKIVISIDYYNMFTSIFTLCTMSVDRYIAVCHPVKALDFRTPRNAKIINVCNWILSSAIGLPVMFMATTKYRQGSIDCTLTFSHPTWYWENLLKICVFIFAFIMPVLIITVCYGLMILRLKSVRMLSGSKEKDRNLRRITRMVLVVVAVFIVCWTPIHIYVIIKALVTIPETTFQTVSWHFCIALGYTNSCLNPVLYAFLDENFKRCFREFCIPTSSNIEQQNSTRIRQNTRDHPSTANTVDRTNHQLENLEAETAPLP

Melanocortin receptor 4 = Melanocortin receptor 4 (Homo sapiens, UniProt P32245)
Chain of Melanocortin receptor 4 (P32245 whole entry): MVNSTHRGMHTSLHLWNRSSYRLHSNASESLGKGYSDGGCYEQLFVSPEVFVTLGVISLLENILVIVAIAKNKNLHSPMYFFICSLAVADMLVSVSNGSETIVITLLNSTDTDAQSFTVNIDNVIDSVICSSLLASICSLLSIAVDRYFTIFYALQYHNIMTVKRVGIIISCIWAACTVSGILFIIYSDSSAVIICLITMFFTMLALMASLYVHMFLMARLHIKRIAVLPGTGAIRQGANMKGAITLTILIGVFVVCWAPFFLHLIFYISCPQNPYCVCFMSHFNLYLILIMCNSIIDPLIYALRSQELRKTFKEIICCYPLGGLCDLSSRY

Cannabinoid receptor 1 [7] = target: T2, Cannabinoid receptor 1
Also: assay procedure not described here.

Compound	AC50 [1] [µM]	AC50 (D(3) dopamine receptor) [µM]	AC50 [2] [µM]	AC50 (Cannabinoid receptor 1 [3]) [µM]	AC50 [4] [µM]	AC50 [5] [µM]	AC50 [6] [µM]	AC50 (Mu-type opioid receptor) [µM]	AC50 (Melanocortin receptor 4) [µM]	AC50 (Cannabinoid receptor 1 [7]) [µM]
CCC(=O)OCC(=O)[C@@]1(OC(=O)CC)[C@@H](C)C[C@H]2[C@@H]3CCC4=CC(=O)C=C[C@]4(C)[C@@]3(F)[C@@H](O)C[C@@]21C [BETAMETHASONE DIPROPIONATE]	> 30	> 30	> 30	> 30	> 30	–	–	–	–	–
CC(C)(C)NC[C@H](O)COc1nsnc1N1CCOCC1 [TIMOLOL]	> 30	> 30	> 30	> 30	> 30	–	–	–	–	–
CN1CCN(c2c(F)cc3c(=O)c(C(=O)O)cn4c3c2SCC4)CC1 [RUFLOXACIN]	> 30	> 30	–	> 30	> 30	> 30	–	–	–	–
CC(=O)c1ccc2c(c1)N(CCCN1CCC(CCO)CC1)c1ccccc1S2 [PIPERACETAZINE]	> 30	0.017	4.7	> 30	> 30	–	0.18	–	–	–
CCCN(CC)C(CC)C(=O)Nc1c(C)cccc1C (stereo not given) [ETIDOCAINE]	> 30	> 30	> 30	> 30	> 30	–	–	–	–	–
COLISTIN	> 30	> 30	> 30	> 30	> 30	> 30	–	–	–	–
CCN(CC)CCOC(=O)c1ccc(N)cc1Cl [CHLOROPROCAINE]	> 30	> 30	> 30	> 30	–	> 30	–	–	–	–
CN1c2ccccc2C(NCCCCCCC(=O)O)c2ccc(Cl)cc2S1(=O)=O (stereo not given) [TIANEPTINE]	> 30	20	> 30	> 30	> 30	> 30	–	> 30	–	–
N=C(N)NCCCCCCC(=O)NC(O)C(=O)NCCCCNCCCN (stereo not given)	> 30	> 30	> 30	> 30	> 30	> 30	–	–	–	–
CCOC(=O)NNc1ccc(N(CC)CC(C)O)nn1 (stereo not given) [CADRALAZINE]	> 30	> 30	> 30	> 30	> 30	–	–	–	–	–
CS(=O)(=O)OCCCCOS(C)(=O)=O [BUSULFAN]	> 30	> 30	> 30	> 30	–	> 30	–	–	–	–
CC(C)c1cc2c(cc1S(=O)(=O)O)[C@@]1(C)CCC[C@@](C)(C(=O)O)[C@@H]1CC2 [ECABET]	> 30	> 30	> 30	> 30	> 30	–	–	–	–	–
Cc1ccc(=O)n(-c2ccccc2)c1 [PIRFENIDONE]	> 30	> 30	> 30	> 30	> 30	> 30	> 10	> 30	–	–
CCCOC(C(=O)OC1CCN(C)CC1)(c1ccccc1)c1ccccc1 [PROPIVERINE]	> 30	2.5	16	> 30	> 30	–	–	0.75	–	–
COc1ccc(C(CN(C)C)C2(O)CCCCC2)cc1 (stereo not given) [VENLAFAXINE]	> 10	–	–	–	> 10	> 30	–	> 30	> 30	5.5
Clc1ccc2c(c1)C(c1ccccc1)=NCc1nncn1-2 [ESTAZOLAM]	> 10	> 30	> 10	> 30	> 10	–	> 10	> 30	> 30	–
Nc1nc(F)nc2c1ncn2[C@@H]1O[C@H](COP(=O)(O)O)[C@@H](O)[C@@H]1O [FLUDARABINE PHOSPHATE]	> 30	> 30	> 30	–	> 30	–	–	–	> 30	> 30
COc1c(O[C@@H]2O[C@H](CO)[C@@H](O)[C@H](O)[C@H]2O)cc2c(c1OC)-c1ccc(SC)c(=O)cc1[C@@H](NC(C)=O)CC2 [THIOCOLCHICOSIDE]	> 30	> 30	> 30	> 30	6.2	> 30	–	–	–	–

Compound	AC50 [1] [µM]	AC50 (D(3) dopamine receptor) [µM]	AC50 [2] [µM]	AC50 (Cannabinoid receptor 1 [3]) [µM]	AC50 [4] [µM]	AC50 [5] [µM]	AC50 [6] [µM]	AC50 (Mu-type opioid receptor) [µM]	AC50 (Melanocortin receptor 4) [µM]	AC50 (Cannabinoid receptor 1 [7]) [µM]
Clc1ccc(C(Cn2ccnc2)OCc2ccc(Sc3ccccc3)cc2)c(Cl)c1 (stereo not given) [FENTICONAZOLE]	> 30	30	> 30	1.3	–	–	–	–	–	11
Nc1ccn([C@@H]2O[C@H](CO)[C@@H](O)C2(F)F)c(=O)n1 [GEMCITABINE]	> 10	> 30	> 10	> 30	> 10	–	> 10	> 30	> 30	–
CC(=O)O[C@H]1C[C@@H]2CC[C@@H]3[C@H](CC[C@@]4(C)[C@H]3C[C@H]([N+]3(C)CCCCC3)[C@@H]4OC(C)=O)[C@@]2(C)C[C@@H]1[N+]1(C)CCCCC1 [PANCURONIUM]	> 10	> 30	> 10	–	> 10	–	> 10	> 30	> 10	> 10
COc1cc2c(Nc3ccc(Br)cc3F)ncnc2cc1OCC1CCN(C)CC1 [VANDETANIB]	> 30	20	14	> 30	> 30	> 30	–	–	–	–
O=C(O)c1ccccc1OP(=O)(O)O [FOSFOSAL]	> 30	> 30	> 30	> 30	–	> 30	–	–	–	–
CCCNC(C)C(=O)Nc1ccccc1C (stereo not given) [PRILOCAINE]	> 30	> 30	> 30	> 30	–	> 30	–	–	–	–
COCCOC(=O)C1=C(C)NC(C)=C(C(=O)OC/C=C/c2ccccc2)C1c1cccc([N+](=O)[O-])c1 (stereo not given) [CILNIDIPINE]	> 30	> 30	> 30	> 30	> 30	> 30	–	–	–	–
CO[C@@]1(NC(=O)Cc2cccs2)C(=O)N2C(C(=O)O)=C(COC(N)=O)CS[C@@H]21 [CEFOXITIN]	> 30	> 30	> 30	> 30	> 10	> 30	–	–	–	–
CN(c1nccc(=O)[nH]1)C1CCN(c2nc3ccccc3n2Cc2ccc(F)cc2)CC1 [MIZOLASTINE]	> 30	> 30	17	> 30	> 30	–	–	–	–	–
COc1cccc2c1C(=O)c1c(O)c3c(c(O)c1C2=O)C[C@@](O)(C(C)=O)C[C@@H]3O[C@H]1C[C@H](N)[C@H](O)[C@H](C)O1 [DAUNORUBICIN]	–	17.9	–	–	> 30	> 30	–	24	–	–
CCn1cc(C(=O)O)c(=O)c2cc(F)c(N3CCN(C)CC3)cc21 [PEFLOXACIN]	> 30	3.6	> 30	> 30	> 30	> 30	–	–	–	–
CN1[C@@H]2CC[C@H]1C[C@@H](OC(=O)c1c[nH]c3ccccc13)C2 [TROPISETRON]	> 30	> 30	15	> 30	> 30	–	–	–	–	–
C[n+]1ccccc1/C=N/O [PRALIDOXIME]	> 30	> 30	> 30	> 30	> 30	> 30	–	–	–	–
C#C[C@]1(O)CC[C@H]2[C@@H]3CCC4=CC(=O)CCC4=C3C=C[C@@]21CC [GESTRINONE]	> 30	> 30	24	> 30	> 30	> 30	–	–	–	–
CC[N+]1(C)CCCC(OC(=O)C(O)(c2ccccc2)c2ccccc2)C1 (stereo not given) [PIPENZOLATE]	> 30	> 30	> 30	> 30	> 30	–	–	–	–	–
C=CC1=C(C(=O)O)N2C(=O)[C@@H](NC(=O)/C(=N\OCC(=O)O)c3csc(N)n3)[C@H]2SC1 [CEFIXIME]	> 30	–	–	> 30	–	> 30	–	–	–	–
CCCCCCNC(=O)n1cc(F)c(=O)[nH]c1=O [CARMOFUR]	> 30	> 30	> 30	–	> 30	–	> 30	–	–	> 30

Reference: ChEMBL document CHEMBL5291721, “A preclinical secondary pharmacology resource illuminates target-adverse drug reaction associations of marketed drugs” (Nat Commun, 2023)
